Test in all cases: NCI anticancer screen, dose series, 48 h
Experiment [1] deals with RPMI-8226 leukemia.
The subject of experiment [2] is HCC-2998 colon.
Experiment [3] relates to HL-60(TB) leukemia.
For experiment [4], the system named is OVCAR-5 ovarian.
In experiment [5] the test system is UO-31 renal.
Experiment [6] deals with SNB-19 CNS.
For experiment [7], the system named is EKVX NSCLC.
Experiment [8] relates to SN12C renal.
Experiment [9] has as its system T-47D breast.
The subject of experiment [10] is A549 NSCLC.

Each structure is given as a SMILES string.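 Results reflect a 48-hour exposure of cells in 96-well plates to compound at five concentrations. Here, GI50 denotes the concentration required for 50% inhibition of growth. TGI: total growth inhibition.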

Turning to `Nc1ccc(-c2nc3cc(F)ccc3s2)cc1`, the TGI is over 100 µM in experiment [1]; over 100 µM in experiment [2]; over 100 µM in experiment [3]; over 92.8 µM in [4]; over 100 µM in [5]; over 100 µM in experiment [6]. Moreover, the TGI in [7] is over 46.6 µM; in [8], over 100 µM; in experiment [9] it was over 100 µM; in experiment [10], over 100 µM.

For `COc1cc([C@@H]2c3cc4c(cc3[C@@H](Nc3ccc(NC(=O)c5cc(NC(=O)c6cc([N+](=O)[O-])cn6C)cn5C)cc3)[C@H]3COC(=O)[C@H]23)OCO4)cc(OC)c1O`, the TGI was 0.486 µM in [1]; 26.4 µM in [2]; 11.3 µM in [3]; 99.6 µM in experiment [4]; over 53 µM in experiment [5]; over 55.1 µM in [6]. Further, the TGI in experiment [7] was over 64.2 µM; in experiment [8], 26.5 µM; in experiment [9], over 62.8 µM; in [10], over 49.9 µM.

On to `O=C1C(CN2CCCC2)CCCC1CN1CCCC1` (stereo not given), for which the TGI is 3.97 µM in experiment [1]; 34.3 µM in [2]; 0.445 µM in experiment [3]; 13.2 µM in [4]; 2.31 µM in [5]; over 100 µM in [6]. Further, the TGI in experiment [7] worked out at 13.7 µM; in experiment [8], 32.5 µM; in experiment [9], 6.96 µM; in experiment [10] it was 39.3 µM.

As to `COc1cnnc2c(C)c(-c3ccccc3)nn12`, the TGI in [1], in experiment [2], in experiment [3], in [4], in [5] and in experiment [6] was over 100 µM in each case. Moreover, the TGI in experiment [7], in experiment [8], in [9] and in [10] was over 100 µM in each case.

Take `O=C1OC(C(O)C(O)C(O)CO)C(O)C1O` (stereo not given): the TGI in experiment [1], in experiment [2], in [3], in experiment [4], in [5] and in experiment [6] was over 100 µM throughout. For the same compound, the TGI in [7], in [8], in [9] and in experiment [10] was over 100 µM throughout.

Consider `COC1CCC(n2c([C@@H]3CCCC(=O)N3c3ccc(F)c(F)c3)nc3cc(-c4c(C)noc4C)ccc32)CC1` (stereo not given in full), for which the GI50 in experiment [1] is 0.703 µM; in [2], 4.19 µM; in experiment [3], 0.851 µM; in experiment [4] it was 17.2 µM; in [5], 1.64 µM; in [6], 9.31 µM. In addition, the GI50 was 3.97 µM in [7], 10.3 µM in [8], 2.03 µM in experiment [9] and 11.8 µM in experiment [10]. The TGI in experiment [1] was 8.21 µM; in [2], 19.6 µM; in experiment [3], 36.4 µM; in experiment [4], over 100 µM; in experiment [5] it was 14.5 µM; in [6], over 100 µM. The TGI was over 100 µM in experiment [7], 29.6 µM in [8], 50.7 µM in [9] and 69.5 µM in experiment [10].

Regarding `CC(C)C(/C=C/c1ccccc1)=N\NC(=S)NN`, the TGI in experiment [1], in experiment [2], in experiment [3], in [4], in experiment [5] and in experiment [6] was over 100 µM each time. In addition, the TGI in experiment [7], in [8], in experiment [9] and in experiment [10] was over 100 µM each time.

On to `Cc1ccc(Nc2nc(NS(=O)(=O)c3cc(C)c(Cl)cc3S)n[nH]2)cc1`, for which the TGI in experiment [1], in [2], in experiment [3], in experiment [4], in experiment [5] and in [6] was over 100 µM throughout. Also, the TGI in experiment [7], in experiment [8], in experiment [9] and in experiment [10] was over 100 µM in each case.

With `OCCNc1nc2c(N3CCCC3)nc(N3CCNCC3)nc2nc1NCc1ccccc1`, the TGI worked out at 38.4 µM in [1]; 29.1 µM in experiment [2]; 32.8 µM in experiment [3]; 24.7 µM in [4]; 28.7 µM in experiment [5]; 29.4 µM in experiment [6]. For the same compound, the TGI in experiment [7] is 26.9 µM; in experiment [8], 30.7 µM; in experiment [9], 30.8 µM; in [10], 31.4 µM.

As for `Clc1ccc(-c2nn3c(C45CC6CC(CC(C6)C4)C5)nnc3s2)cc1`, the TGI in [1], in experiment [2], in experiment [3], in experiment [4], in [5] and in [6] was over 100 µM each time. For the same compound, the TGI in experiment [7], in experiment [8], in experiment [9] and in experiment [10] was over 100 µM throughout.

Values taken from PubChem BioAssay (NCI).
